Patent US20240026383A1 (priority 2020, published 2024)
Entries after “also recorded” stand apart in the source; their conditions may differ.

Columns and labels:
[1] = tested on: LacZa of E. coli MG1655; assay: FnCas12a targeting assay with Tagged-T4 td intron variants (CFU drop plating); type: cell-based; settings: T crRNA, both induced and non-induced selective media
Source text: Four different intron variants (as shown previously in FIG. 8), referred to as “Tag1”, “Tag2”, etc. (Tag1: −4P, −5P, −6P; Tag2: −4W, […] −4W, −5W, −6P; Tag4: −4M, −5P, −6P) are inserted directly after the start codon of the GOI (FnCas12a gene). The 5′ exon sequences of the four different tags are indicated: Tag1: TCCtcaGGT (SEQ ID NO: 7); Tag2: TCCtcgGGT (SEQ ID NO: 8); Tag3: TCCttgGGT (SEQ ID NO: 9); Tag4: TCCtctGGT (SEQ ID NO: 10). The 3′ exon sequence is conserved amongst the 4 different tags and indicated as CTA (SEQ ID NO: 12). The amino acids corresponding to the Tag sequences are indicated with capital bold letters above the Tagged-introns. Intron-less (wild-type) FnCas12a was used as a reference for comparison. Efficiency of targeting of the different Tagged-T4 td intron variants was assessed by using either a LacZa targeting (T) or a non-targeting (NT) crRNA and by comparing the amount of colony forming units (CFUs) of transformed E. coli MG1655 per μg of plasmid used (CFUs μg^−1). CFU was determined by the number of colonies observed.
Electrocompetent E. coli MG1655 were transformed (2.5 kV, 200 Ω, 25 μF) with 10 ng μL^−1 of the respective plasmid and recovered for 1 hour in 500 μL LB medium [10 g L^−1 tryptone (Oxoid), 5 g L^−1 yeast extract (BD), 10 g L^−1 NaCl (Acros)] at 37° C. Then, the recovered culture was serially diluted and drop plated on selective (50 μg mL^−1 kanamycin) LB agar plates in the presence or absence of 2 mM theophylline. The agar plates were incubated at 30° C. for 24 hours and the CFUs were counted.
E. coli MG1655 was transformed with a series of plasmids (listed in Table 4) and serially diluted and drop plated on selective (kanamycin) LB media with or without 2 mM theophylline. […] The effect of the CFU reduction was more apparent for the Tag4-intron where colonies could only be observed at the 10° dilution, followed by Tag3-intron (10^−1) then Tag2-intron (10^−2) and finally Tag1-intron ([…]).

[2] = tested on: LacZ gene of E. coli MG1655; assay: SIBR-Cas genome editing (HR and CRISPR-Cas counterselection) of LacZ; type: cell-based
Source text: For efficient genome editing in bacteria, HR should precede CRISPR-Cas counterselection. To assess whether tight control over CRISPR-Cas targeting could bolster the efficiency of CRISPR-Cas mediated genome editing by allowing more time for HR to occur, we used SIBR-Cas and targeted the LacZ gene of E. coli MG1655 for knock-out through HR and CRISPR-Cas counterselection using a blue/white screening colony assay. To facilitate HR, we added 500 bp up- and down-stream homology arms to the plasmids expressing the four SIBR-Cas (Int1-4) and WT-FnCas12a variants that target the LacZ gene. After 1 hour recovery, we induced the expression of the SIBR-Cas variants to counterselect the WT from the mutant colonies.
Since disruption of LacZ can also be achieved through non-HR mediated approaches (spontaneous mutations or occasional error-prone DNA repair following DNA cleavage by Cas12a), not all gene deletions can be screened phenotypically. Therefore, we repeated our experiment, but X-gal was omitted from the medium to eliminate the possibility of false-positives. Randomly selected colonies that were obtained were screened by PCR for LacZ deletion showing a 0%, 0%, 29% and 38% editing efficiency for Int1, Int2, Int3 and Int4 SIBR-Cas variants, respectively (FIG. 24C). […] The observed decrease in editing efficiency (compared to the blue/white screening) might be attributed to spontaneous LacZ mutations that escape CRISPR-Cas counterselection. Nevertheless, a high editing efficiency (38%) was observed when SIBR-Cas Int4 was used without the use of recombinases or any other complex systems.

[3] = tested on: EndA of P. putida; assay: FnCas12a targeting assay with Tagged-T4 td intron variants in P. putida; type: cell-based, Pseudomonas putida; settings: media with or without theophylline
Protocol: Plasmids bearing the four T4 td intron-FnCas12a or the intron-less FnCas12a and an EndA T or an NT crRNA were transformed to P. putida and the targeting efficiency was assessed by comparing the CFUs μg^−1 in the presence or absence of the theophylline inducer.
In more detail, electrocompetent P. putida cells were transformed (2.5 kV, 200 Ω, 25 μF) with 200 ng plasmid and recovered in 1 ml LB for 2 hours at 30° C. Then, the culture was serially diluted and drop plated on selective (50 μg mL^−1 kanamycin) LB agar plates in the presence or absence of 2 mM theophylline. The agar plates were incubated at 30° C. for 24 hours and the CFUs were counted.
P. putida was transformed with a series of plasmids (listed in Table 6) and serially diluted and drop plated on selective (kanamycin) LB media with or without 2 mM theophylline. […] However, for P. putida, the effect of induction was more apparent than E. coli as no CFUs could be observed for transformants bearing the T crRNA and plated on selective media with theophylline. […] Collectively, the Tagged-intron constructs work efficiently in P. putida and can be used for genome engineering.

WT-FnCas12a: Intron-less (wild-type) FnCas12a used as a reference for comparison [reference compound]
CFUs [1]: complete elimination of CFUs
colonies obtained ([2]; LacZ targeting): no colonies; also recorded: did not yield any colonies
unbiased editing efficiency (LacZ deletion by PCR of randomly selected colonies) ([2]; X-gal omitted from the medium): 0%
editing efficiency: percentage of white colonies from total CFUs mL-1 ([2]; blue/white screening, LacZ targeting, induced after 1 hour recovery): 0%
CFUs [3]: did not have any CFUs
